According to patent US20130072506A1, “6,8-DISUBSTITUTED PURINE COMPOSITIONS” (priority 2011, published 2013):

Columns and labels:
[1] = test system: human skin fibroblast line ASF-2; experiment: Actin staining (cytoskeletal organization); type: cell-based; conditions: young cells, after 3 days, treated vs untreated
Description: (§1) All cell culture experiments were performed on early and mid passage cultures (about 20 to 40% lifespan completed) of normal human skin fibroblast line, designated ASF-2. In order to check the effects of test compounds on senescent cells, late passage cells with more than 90% lifespan completed were used. ASF-2 cell line was established from a mammary skin biopsy obtained from a young, non-smoking and healthy […] at the time of breast reduction operation. Normal culture conditions of medium (DMEM) containing antibiotics, 10% foetal calf serum, and incubation at 37° C. with 95% humidity were used. The effects of the test compounds were determined using the following procedures.
Actin staining. The pattern of cytoskeletal actin staining was studied by staining the cells with florescent ligand FITC-labelled Phalloidin, using a florescence microscope.

[2] = test system: Amaranthus caudatus cotyledon/hypocotyl explants; experiment: Amaranthus bioassay (betacyanin content); type: in vivo, Amaranthus caudatus var. atropurpurea
Description: Testing of Novel Compounds in Amaranthus bioassay. Standard Amaranthus bioassay was performed with several modifications. The seeds of Amaranthus caudatus var. atropurpurea were surface-sterilized in 10% N-chlorobenzene sulfonamide (w/v) for 10 min and washed 5 times in deionized water. They were placed in 14 cm Petri dishes containing paper tissues saturated with deionized water. After 72 hours of cultivation at 25° C. in darkness, the roots of the seedlings were cut off. The explants, consisting of two cotyledons and hypocotyls, were placed in 5 cm Petri dishes on two layers of filter paper soaked in 1 ml of incubation medium containing 10 μmol Na2HPO4—KH2PO4, pH 6.8, 5 μmol tyrosine and the cytokinin to be tested. There were 20 explants per dish. The procedure was carried out under a green safe light in a darkroom. After a 48 hours of incubation at 25° C. in darkness, betacyanin was extracted by freezing the explants in 4 ml 3.33 μM acetic acid. The concentration of betacyanin was determined by comparing the absorbance at 537 nm and 620 nm as follows: DA=A537nm−A620nm. From the obtained data, the concentration with highest activity was selected for each compound tested. Relative activity of the compound at this concentration was calculated (see Table 3 below). […] The values shown in Table 3 are means of five replicates and the entire test was repeated twice.
The cytokinins to be tested were dissolved in dimethylsulfoxide (DMSO) and the solution brought up to 10^−3 M with distilled water.

[3] = test system: human skin fibroblast line ASF-2; experiment: Senescence-specific beta-galactosidase staining; type: cell-based
From the text: (§2) B) Cellular parameters: • (4) Cellular morphology: to evaluate cytoplasmic and nuclear stability; • (5) Cytoskeleton organization: to evaluate the stability of the cytoskeleton; • (6) Appearance of senescence-specific β-galactosidase: to rule out pro-aging effects; • (7) Lysosomal staining (Neutral red); • (8) JC-1 Staining of Mitochondria: for evaluation of mitochondrial function; • (9) Rejuvenation studies: for evaluation of reversion effect from aged phenotype to young phenotype; and
as §1

[4] = test system: human skin fibroblast line ASF-2; experiment: Short-term growth of human skin fibroblasts; type: cell-based; conditions: for cellular growth: 200 to 500 μM
Description: Experimental Procedures. A stock solution of 4 mM for 6-furfurylamino-8-aminopurine and 8 mM for other compounds were prepared by dissolving about […] per ml 1N HCl, followed by its appropriate dilution by the addition of Hank's buffer. The stock solution was filter sterilized, stored at 4° C., and was used for experiments by dilution it in the cell culture medium as required.
as §1
Growth characteristics. Short-term growth experiments were performed using 24-well tissue culture plates (growth area 1.9 cm^2). Freshly prepared cell suspensions from mass cultures of ASF-2 cells maintained in our labs were used. About 10,000 cells were seeded into 6 sets of 24-well plates. The cells were allowed to attach and stabilize for 24 hr in normal culture medium to achieve various final concentrations (range 40 to 500 μM). Culture medium was changed with the addition of test chemicals twice a week. The numbers of cells were counted after different days of treatment in 2 wells from each concentration of the test chemical, by following the normal method of cell trypsinization and counting using a Coultercounter. The third well in each category was fixed by cold methanol and stained with Giemsa stain for permanent record and for photography. The experiment was carried on for until the cultures became fully confluent and no further growth was possible.

SKH-1 hairless mice = experiment: Hairless mouse assay: skin elasticity; type: in vivo; conditions: 3 weeks of topical treatment
From the text: Evaluation of cutaneous effects of new topical compounds in the hirless mouse assay. The purpose of this study was to evaluate new topical compounds for their safety and efficacy as topical skin anti-aging treatments. The hairless mouse model is a well established model for studying the treatments of photoaging. This model has been used to study mechanisms, define effective treatment regimens and assess safety for retinoids and other anti-aging products. The present study was used to investigate a new class of anti-aging compounds in comparison to classical ones. Recent clinical studies have shown that this class of compounds improve the appearance of photodamaged skin and decrease transepidermal water loss (TEWL) without causing skin irritation. […] At baseline (prior to the 1st treatment), and weekly, the dorsal skin was measured for: transepidermal water loss (TEWL); skin moisture content; and skin elasticity. […]
Skin Moisture Content & Elasticity. […] This instrument is equipped with dual probes which are placed on the skin surface and a quantitative measurement taken of the respective parameters and the measurements recorded on an integrated computer. Mean measurements was determined for each treatment group over time, and comparative statistics used to evaluate product effectiveness. […]

[5] = test system: senescent human skin fibroblasts; experiment: Effects on senescent human skin fibroblasts (morphology, cell number); type: cell-based
From the text: as §2, §1

Nc1nc2c(NCc3ccco3)ncnc2[nH]1 [Compound 82, 6-furfurylamino-8-aminopurine]
actin staining pattern [1]: no obvious differences | Activity (%) ([2]; at concentration with highest activity, activity of kinetin set at 100%): 147.45% | Concentration with highest activity ([2]; betacyanin content, 48 hours in darkness): 10^−4 mol/l | number of prematurely senescent cells (beta-galactosidase staining) [3]: did not show any increase | Cell growth ([4]; 80 μM vs untreated): similar | cellular growth [4]: significantly inhibited | cellular growth ([4]; after 9 days): almost a total inhibition | skin elasticity (SKH-1 hairless mice): better than controls tested | number of surviving senescent cells ([5]; 7 to 14 days): maintains the number of surviving senescent cells | appearance of senescent cells (intracellular debris) ([5]; 40 and 80 μM, vs controls): less intracellular debris | morphology of senescent cells ([5]; after 14 days of treatment): looking relatively younger
